Laboratory results from US4837215A, “Penem derivatives” (Farmitalia Carlo Erba, priority 1985, dated 1989).
≈ marks a conversion by molar mass, not a printed value. Where two headings read alike, the source gives them in different places.

Experiments:
Format in all cases: cell-based
[1] = test system: Staphylococcus aureus 209 P; assay: Antibacterial in vitro activity (MIC), Staphylococcus aureus 209 P
Text: (§1) Comparison between the antibacterial in vitro
(§2) activity (MIC, μg/ml) of compounds (1)
(§3) and (31) and a reference drug: Moxalactam

[2] = test system: Acinobacter; assay: Antibacterial in vitro activity (MIC), Acinobacter
Text: as §1, §2, §3

[3] = test system: Escherichia coli 026/B6 Cef R; assay: Antibacterial in vitro activity (MIC), Escherichia coli 026/B6 Cef R; settings: 026/B6CEFR
Text: as §1, §2, §3

[4] = test system: Shigella flexneri ATCC 11836; assay: Antibacterial in vitro activity (MIC), Shigella flexneri ATCC 11836; settings: ATCC11836
Text: as §1, §2, §3

[5] = test system: Streptococcus pyrogenes ATCC 12384; assay: Antibacterial in vitro activity (MIC), Streptococcus pyrogenes ATCC 12384; settings: ATCC12384
Text: as §1, §2, §3

[6] = test system: Citrobacter freundii ATCC 8090; assay: Antibacterial in vitro activity (MIC), Citrobacter freundii ATCC 8090; settings: ATCC8090
Text: as §1, §2, §3

[7] = test system: Klebsiella aerogenes 1082E (β-lact.+); assay: Antibacterial in vitro activity (MIC), Klebsiella aerogenes 1082E (β-lact.+)
Text: as §1, §2, §3

[8] = test system: Pseudomonas aeruginosa (6 strains); assay: Antibacterial in vitro activity (MIC), Pseudomonas aeruginosa (6 strains)
Text: as §1, §2, §3

[9] = test system: Staphylococcus aureus Smith ATCC 13709; assay: Antibacterial in vitro activity (MIC), Staphylococcus aureus Smith ATCC 13709; settings: ATCC13709
Text: as §1, §2, §3

[10] = test system: Escherichia coli B Cef. R (β-lact.+); assay: Antibacterial in vitro activity (MIC), Escherichia coli B Cef. R (β-lact.+)
Text: as §1, §2, §3

[11] = test system: Enterobacter cloacae P 99 (β-lact.+); assay: Antibacterial in vitro activity (MIC), Enterobacter cloacae P 99 (β-lact.+)
Text: as §1, §2, §3

[12] = Klebsiella aerogenes 1082E (β-lact.+), read-out: MIC
[13] = Escherichia coli B Cef. R (β-lact.+), read-out: MIC
[14] = Enterobacter cloacae P 99 (β-lact.+), read-out: MIC

SMILES | MIC [1] [µg/mL] | MIC [2] [µg/mL] | MIC [3] [µg/mL] | MIC [4] [µg/mL] | MIC [5] [µg/mL] | MIC ([6]; Citrobacter freundii ATCC 8090, read-out: MIC) [µg/mL] | MIC [7, 12] [µg/mL] | MIC [8] [µg/mL] | MIC [9] [µg/mL] | MIC [10, 13] [µg/mL] | MIC [11, 14] [µg/mL] | MIC ([6]; Citrobacter freundii) [µg/mL] | MIC ([7]; Klebsiella aerogenes) [µg/mL] | MIC ([10]; Escherichia coli) [µg/mL] | MIC ([11]; Enterobacter cloacae) [µg/mL]
C[C@@H](O)[C@H]1C(=O)N2C(C(=O)[O-])=C(SCC[n+]3ccccc3)S[C@H]12 [Compound 1, (5R,6S)-6-[(1R)-hydroxyethyl]-2-(2-pyridinioethylthio) penem-3-carboxylate] | 0.011 (≈ 0.0312 µM) | 0.78 (≈ 2.21 µM) | 0.39 (≈ 1.11 µM) | 0.39 (≈ 1.11 µM) | ≤ 0.005 | 0.78 (≈ 2.21 µM) | 0.78 (≈ 2.21 µM) | 9.92 (≈ 28.1 µM) | 0.222 (≈ 0.63 µM) | 0.78 (≈ 2.21 µM) | 0.78 (≈ 2.21 µM) |  |  |  | 
C[C@@H](O)[C@H]1C(=O)N2C(C(=O)[O-])=C(Oc3ccc(C[n+]4ccccc4)cc3)S[C@H]12 [Compound 31] | 0.022 (≈ 0.0552 µM) |  | 0.78 (≈ 1.96 µM) | 1.56 (≈ 3.92 µM) | 0.011 (≈ 0.0276 µM) |  |  |  | 0.045 (≈ 0.113 µM) |  |  | 1.56 (≈ 3.92 µM) | 1.56 (≈ 3.92 µM) | 1.56 (≈ 3.92 µM) | 1.56 (≈ 3.92 µM)
CO[C@@]1(NC(=O)C(C(=O)O)c2ccc(O)cc2)C(=O)N2C(C(=O)O)=C(CSc3nnnn3C)CO[C@@H]21 (stereo partly shown) [Moxalactam, reference compound] | 0.31 (≈ 0.596 µM) |  | 2.5 (≈ 4.8 µM) | 0.15 (≈ 0.288 µM) | 2.5 (≈ 4.8 µM) |  | 0.78 (≈ 1.5 µM) |  | 0.31 (≈ 0.596 µM) | 2.5 (≈ 4.8 µM) | 3.12 (≈ 5.99 µM) |  |  |  | 
